From ChEMBL document CHEMBL1201862, “PubChem BioAssay data set” (2004) come the findings set out here.

Structures are written as SMILES. “And” between values parts separate entries of the source, which are not always exact repeats. Identical values can stand only once.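 Compound exposure: 48 hours, 5 concentrations, 96-well plates. GI50 is the concentration that inhibits growth by half.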 The source made the active and inactive calls. Rule as the data show it: active = GI50 up to about 1.1 µM and inactive = higher.

What all share (experiment): NCI-60 cell line screen, 48 h
Assay [1] has as its system 786-0.
The test system of assay [2] is ACHN.
Assay [3] deals with HOP-62.
Assay [4] has as its system K562.
The subject of assay [5] is LOX IMVI.
The test system of assay [6] is MDA-N.
Assay [7] deals with NCI-H23.
The subject of assay [8] is NCI-H522.
Assay [9] concerns NCI/ADR-RES.
Assay [10] concerns OVCAR-4.
Assay [11] deals with RPMI-8226.
In assay [12] the test system is SR.
For assay [13], the system named is SW-620.
Assay [14] concerns T47D.
Assay [15] deals with U-251.
The subject of assay [16] is UACC-62.
Assay [17] has as its system BT-549.

For the compound `COc1cc([N+](=O)[O-])c(S(=O)(=O)O)cc1-n1nc(-c2ccccc2)n[n+]1-c1cc(S(=O)(=O)[O-])c([N+](=O)[O-])cc1OC`, the GI50 in assay [1], in assay [2], in [3], in assay [4], in [5] and in [6] was > 100 µM (inactive) throughout. In addition, the GI50 in assay [7], in assay [8], in assay [9], in assay [10], in [11] and in [12] was > 100 µM (inactive) throughout. The GI50 in [13], in [14], in assay [15] and in assay [16] was > 100 µM (inactive) each time.

With `COC(=O)C1Cc2c(OC)ccc(OC)c2C(O)C1C(=O)OC` (configuration not stated), the GI50 in assay [1], in [2], in assay [3], in [4], in [5] and in assay [6] was > 100 µM (inactive) throughout. The GI50 in [7], in assay [8], in assay [9], in [10], in [11] and in assay [12] was > 100 µM (inactive) each time. Also, the GI50 in [13], in [14], in assay [15] and in assay [16] was > 100 µM (inactive) throughout.

Turning to `Cc1cc(S(=O)(=O)[N-]/C(=N/S(=O)(=O)c2ccc(Cl)cc2)[n+]2ccc(N(C)C)cc2)c(S)cc1Cl`, the GI50 is > 100 µM (inactive) in assay [1]; > 100 µM (inactive) in assay [2]; 43.5 µM (inactive) in assay [3]; 1.92 µM (inactive) in [4]; > 100 µM (inactive) in assay [5]; > 100 µM (inactive) in assay [6]. For the same compound, the GI50 was > 100 µM (inactive) in assay [7]; 28.7 µM (inactive) in assay [8]; > 100 µM (inactive) in [9]; 55.5 µM (inactive) in [10]; 48 µM (inactive) in assay [11]; < 0.01 µM (active) in assay [12]. The GI50 in assay [13] is 58.3 µM (inactive); in assay [14], > 100 µM (inactive); in assay [15] it was 47 µM (inactive).

As for `c1cc2nnnn2nc1N1CCCC1`, the GI50 in assay [1], in [2], in assay [4], in assay [5], in [6] and in assay [7] was > 100 µM (inactive) each time. Besides, the GI50 in assay [9], in assay [10], in assay [11], in assay [12], in assay [13] and in assay [15] was > 100 µM (inactive) in each case. For the same compound, the GI50 in assay [16] was > 100 µM (inactive).

Take `Oc1ccc(-c2nc3ccc(Br)cc3s2)cc1`: the GI50 in assay [2] is 22.2 µM (inactive); in assay [17], 18.1 µM (inactive); in assay [4] it was 23.5 µM (inactive); in assay [5] it was 15.5 µM (inactive); in assay [6] it was 25.6 µM (inactive); in assay [7], 22.1 µM (inactive). Further, the GI50 is 10.7 µM (inactive) in [8]; 18.1 µM (inactive) in assay [9]; 15.1 µM (inactive) in [11]; 10.3 µM (inactive) in assay [12]; 32.2 µM (inactive) in [13]; 20.4 µM (inactive) in assay [15]. Besides, in [16], the GI50 was 13 µM (inactive).

As to `CC(=O)c1c(-c2cccc3ccccc23)c(C#N)c(=S)n(C2OC(CO)C(O)C(O)C2O)c1C` (configuration not stated), the GI50 in [1] is > 100 µM (inactive); in [2], > 100 µM (inactive); in [17], > 100 µM (inactive); in assay [3], 54.8 µM (inactive); in [4], 43.9 µM (inactive) and 71.6 µM (inactive); in [5], > 100 µM (inactive). For the same compound, the GI50 in [6] was 50.1 µM (inactive); in assay [7], > 100 µM (inactive) and 52.2 µM (inactive); in assay [8], > 100 µM (inactive); in assay [9], 62.2 µM (inactive); in assay [10] it was > 100 µM (inactive); in [11], 53.2 µM (inactive). Further, the GI50 in [13] is > 100 µM (inactive); in assay [16] it was 64.7 µM (inactive).

In the case of `CNC(=O)OC(COC)CN1CCN(c2ccccc2C)CC1` (configuration not stated), the GI50 in [1], in assay [2], in assay [3], in assay [4], in assay [5] and in assay [7] was > 10 µM (inactive) throughout. Moreover, the GI50 in assay [8], in [9], in assay [10], in [11], in assay [12] and in [13] was > 10 µM (inactive) each time. The GI50 in [14], in [15] and in [16] was > 10 µM (inactive) each time.

For `O=c1[nH]c2ccsc2c(=O)n1COCc1ccccc1`, the GI50 in [1], in assay [2], in [17], in [3], in [4] and in assay [5] was > 100 µM (inactive) throughout. Also, the GI50 in assay [6], in [7], in assay [8], in assay [9], in [10] and in assay [11] was > 100 µM (inactive) in each case. Further, the GI50 in assay [12], in [13] and in assay [15] was > 100 µM (inactive) in each case.

For the compound `COC(=O)CC1CN(C(=O)OCc2ccccc2)C(C)(C)O1` (configuration not stated), the GI50 in assay [1] is > 100 µM (inactive); in [2] it was > 100 µM (inactive); in assay [17], 4.97 µM (inactive); in assay [4] it was > 100 µM (inactive); in assay [5], > 100 µM (inactive); in assay [6], > 100 µM (inactive). Further, the GI50 is 28.8 µM (inactive) in assay [7]; 5.46 µM (inactive) in assay [8]; > 100 µM (inactive) in assay [9]; > 100 µM (inactive) in assay [10]; 81.3 µM (inactive) in [11]; > 100 µM (inactive) in assay [12]. Besides, the GI50 in assay [13], in assay [15] and in assay [16] was > 100 µM (inactive) each time.

As for `CN(C)CCNC(=O)c1cccc2c(NCC(=O)O)c3ccccc3nc12`, the GI50 was 6.87 µM (inactive) in [1]; 5.82 µM (inactive) in [2]; 11.6 µM (inactive) in [3]; 14 µM (inactive) in [4]; 4.97 µM (inactive) in assay [5]; 14 µM (inactive) in [6]. In addition, the GI50 in assay [7] is 15.2 µM (inactive); in assay [8] it was 10.6 µM (inactive); in assay [9], 11.9 µM (inactive); in assay [10], 9.82 µM (inactive); in assay [11], 16.5 µM (inactive); in [12], 1.36 µM (inactive). Moreover, the GI50 is 6.62 µM (inactive) in [13], 24.5 µM (inactive) in assay [15] and 15.1 µM (inactive) in [16].

Take `CN(Cc1cccc2ccccc12)Cc1cccc2ccccc12`: the GI50 in assay [1] is 37.8 µM (inactive); in assay [2], 37.6 µM (inactive); in assay [17] it was 56.4 µM (inactive); in [3], 45.6 µM (inactive); in assay [4] it was 35.1 µM (inactive); in assay [5], 34.3 µM (inactive). The GI50 in assay [7] was 26.6 µM (inactive); in assay [8], 19 µM (inactive); in [9] it was 47.5 µM (inactive); in assay [10] it was 36.1 µM (inactive); in assay [11], 22.6 µM (inactive); in assay [12] it was 30.8 µM (inactive). In addition, the GI50 was 20.6 µM (inactive) in assay [13], 21 µM (inactive) in assay [14], 22.6 µM (inactive) in [15] and 67.5 µM (inactive) in assay [16].

For the compound `ClCCCN(CCCCl)c1ccc(/C=N/c2cccc(Cl)c2)cc1`, the GI50 in assay [1] is 18.3 µM (inactive); in assay [2], 7.26 µM (inactive); in [3] it was 18.7 µM (inactive); in [4] it was 11.8 µM (inactive); in assay [5] it was 7.57 µM (inactive); in [7], 15.5 µM (inactive). Further, the GI50 in assay [8] was 30.5 µM (inactive); in [9], 11.2 µM (inactive); in assay [10] it was 9.75 µM (inactive); in assay [11], 17.2 µM (inactive); in assay [13], 12.9 µM (inactive); in assay [14], 7.11 µM (inactive). The GI50 in [15] is 26.9 µM (inactive); in assay [16], 1.49 µM (inactive).

Consider `CC(C)C[P+](c1ccccc1)(c1ccccc1)c1ccccc1`, for which the GI50 in [1] is 41.5 µM (inactive); in assay [2], 20.2 µM (inactive); in [17] it was 4.75 µM (inactive); in assay [3] it was 13.7 µM (inactive); in assay [4], 2.28 µM (inactive); in assay [5], 11.3 µM (inactive). Also, the GI50 is 7.4 µM (inactive) in assay [7]; 3.97 µM (inactive) in assay [8]; > 100 µM (inactive) in assay [9]; 12.1 µM (inactive) in [10]; < 0.01 µM (active) in assay [11]; 5.87 µM (inactive) in assay [13]. The GI50 in assay [14] is 11.8 µM (inactive); in [15], 3.12 µM (inactive); in [16] it was 3.85 µM (inactive).
